For ten molecules, GI50 and TGI results are on record in PubChem BioAssay (NCI).

SMILES strings stand for the structures. Values joined by “and” are separate entries in the source; they are usually repeats but may differ in a detail not shown here. Equal values may be shown once.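 How tested: cells in 96-well plates exposed to compound for 48 hours at five concentrations. GI50: concentration for 50% inhibition of growth. TGI denotes the concentration required for complete inhibition of growth.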

Some test systems named below: NCI-H226 lung; OVCAR-8 ovarian; OVCAR-4 ovarian; 786-0 renal; K-562 leukemia; HS 578T breast; TK-10 renal; A549 NSCLC; UACC-257 melanoma; SNB-19 CNS.
Common to all, as to test: NCI tumour cell line growth inhibition, 48 h

`COc1cc(C2c3cc4c(cc3C(OC(=O)C[n+]3ccccc3)C3COC(=O)C23)OCO4)cc(OC)c1OC` (stereo not given): the GI50 with NCI-H226 lung was less than 0.01 µM; in the test with OVCAR-8 ovarian, less than 0.021 µM; in the test on OVCAR-4 ovarian it was less than 0.0239 µM; in the test on 786-0 renal, less than 0.0183 µM; with K-562 leukemia, less than 0.0173 µM; in the test with HS 578T breast it was less than 0.0241 µM. For the same molecule, the GI50 in the test on TK-10 renal was more than 100 µM; in the test on A549 NSCLC it was less than 0.0197 µM; with UACC-257 melanoma, more than 100 µM; in the test with SNB-19 CNS, less than 0.0265 µM. Besides, the TGI in the test with NCI-H226 lung, in the test on OVCAR-8 ovarian, in the test with OVCAR-4 ovarian, with 786-0 renal, in the test on K-562 leukemia and in the test on HS 578T breast was more than 100 µM throughout. The TGI with TK-10 renal, in the test with A549 NSCLC, with UACC-257 melanoma and with SNB-19 CNS was more than 100 µM throughout.
Consider `CC(=O)c1cc(C(=O)c2ccc3c(c2)Sc2ccccc2N3)n2ccccc12`, for which the TGI in the test with NCI-H226 lung, with OVCAR-8 ovarian, in the test with K-562 leukemia, in the test on HS 578T breast, in the test with A549 NSCLC and in the test with UACC-257 melanoma was more than 33.2 µM throughout. Moreover, the GI50 in the test with OVCAR-8 ovarian is 0.00752 µM and 0.00332 µM; with OVCAR-4 ovarian, 0.0145 µM; in the test on 786-0 renal, 0.00459 µM; with K-562 leukemia, 0.00385 µM and 0.00332 µM; in the test on HS 578T breast, 0.00375 µM and 0.00332 µM; in the test with A549 NSCLC it was 0.00613 µM and 0.00332 µM. In addition, the GI50 with UACC-257 melanoma was 0.00332 µM; in the test with SNB-19 CNS it was 0.00824 µM.
On to `CC1NC(=O)C2=C1C(=O)NC(=O)C2` (stereo not given), for which the GI50 in the test on NCI-H226 lung, in the test on OVCAR-8 ovarian, with 786-0 renal, with K-562 leukemia, in the test with HS 578T breast and in the test on TK-10 renal was more than 100 µM in each case. For the same molecule, the GI50 with A549 NSCLC and in the test on UACC-257 melanoma was more than 100 µM each time. Further, the TGI with NCI-H226 lung, in the test on OVCAR-8 ovarian, in the test on 786-0 renal, in the test with K-562 leukemia, in the test with HS 578T breast and in the test on TK-10 renal was more than 100 µM in each case. Further, the TGI in the test with A549 NSCLC and in the test with UACC-257 melanoma was more than 100 µM throughout.
Turning to `O=C(O)C1[O][Sb][O]C(C(=O)O)C1O` (stereo not given), the GI50 in the test on NCI-H226 lung, with OVCAR-8 ovarian, with OVCAR-4 ovarian, in the test on 786-0 renal, with K-562 leukemia and in the test on HS 578T breast was more than 100 µM throughout. The GI50 in the test with TK-10 renal, with A549 NSCLC and in the test on SNB-19 CNS was more than 100 µM throughout. Besides, the TGI in the test on NCI-H226 lung, in the test on OVCAR-8 ovarian, with OVCAR-4 ovarian, in the test on 786-0 renal, with K-562 leukemia and in the test on HS 578T breast was more than 100 µM throughout. Also, the TGI in the test on TK-10 renal, in the test on A549 NSCLC and in the test on SNB-19 CNS was more than 100 µM throughout.
With `O=C1O/C(=C/c2ccccc2)C(c2ccccc2)=C1O`, the TGI in the test with NCI-H226 lung, in the test with OVCAR-8 ovarian, in the test on OVCAR-4 ovarian, with 786-0 renal, with K-562 leukemia and with TK-10 renal was more than 100 µM in each case. Besides, the TGI in the test with A549 NSCLC, in the test with UACC-257 melanoma and in the test with SNB-19 CNS was more than 100 µM each time.
Consider `C=CCC(N[C@@H](CO)c1ccccc1)c1cn(C(=O)OCC)c2ccccc12` (stereo not given in full), for which the GI50 is 23.1 µM with NCI-H226 lung; 31.7 µM in the test on OVCAR-8 ovarian; 81.5 µM with OVCAR-4 ovarian; 18 µM in the test on 786-0 renal; 22.6 µM in the test with K-562 leukemia; 21 µM in the test with HS 578T breast. Moreover, the GI50 in the test on TK-10 renal is 23.2 µM; in the test on A549 NSCLC it was 34.7 µM; in the test with UACC-257 melanoma, 22.9 µM. Also, the TGI in the test on NCI-H226 lung was 48.7 µM; in the test on OVCAR-8 ovarian it was more than 100 µM; in the test on OVCAR-4 ovarian it was more than 100 µM; with 786-0 renal, 36.7 µM; with K-562 leukemia, more than 100 µM; with HS 578T breast, 40.3 µM. Moreover, the TGI with TK-10 renal was 73.6 µM; in the test on A549 NSCLC it was more than 100 µM; in the test on UACC-257 melanoma it was 66 µM.
Take `COC(=O)C1C(=O)O[C@@H](c2cc(OC)c(OC)cc2OC)C1C(=O)OC` (mixture of isomers): the TGI in the test on NCI-H226 lung, in the test with OVCAR-8 ovarian, in the test with OVCAR-4 ovarian, in the test with 786-0 renal, in the test on K-562 leukemia and in the test with TK-10 renal was more than 100 µM throughout. Besides, the TGI in the test on A549 NSCLC, in the test on UACC-257 melanoma and with SNB-19 CNS was more than 100 µM throughout.
As to `NC1=NN(c2ccccc2)C(=O)C1C(=O)C(=O)Nc1ccc(Cl)c(Cl)c1` (stereo not given), the TGI in the test on NCI-H226 lung, in the test with OVCAR-8 ovarian, in the test on OVCAR-4 ovarian, in the test on 786-0 renal, in the test on K-562 leukemia and in the test on TK-10 renal was more than 100 µM throughout. Also, the TGI in the test with A549 NSCLC, with UACC-257 melanoma and with SNB-19 CNS was more than 100 µM throughout.
In the case of `CC(C)CCCCCCCCCCCCC(=O)NCC(=O)NC1C(O)C(O)C(Nc2ncnc3nc[nH]c23)OC1C(O)CO` (stereo not given), the GI50 was less than 1e-05 µM with OVCAR-4 ovarian; 0.00331 µM and 0.0128 µM in the test with K-562 leukemia; less than 1e-05 µM in the test with TK-10 renal. Besides, the TGI is 0.526 µM with 786-0 renal; 0.412 µM and 3.94 µM with K-562 leukemia; 0.446 µM in the test on HS 578T breast; 0.00787 µM and 0.0537 µM and 0.0327 µM in the test with A549 NSCLC; 0.0121 µM and 0.00367 µM and 0.00683 µM with SNB-19 CNS.
As for `O=C1/C(=C/c2ccc(Cl)cc2)CNC/C1=C\c1ccc(Cl)cc1`, the GI50 in the test with OVCAR-4 ovarian is 1.52 µM; in the test with K-562 leukemia, 0.551 µM and 1.37 µM; in the test with UACC-257 melanoma it was 1.78 µM and 7.7 µM. For the same molecule, the TGI was 4.69 µM and 2.77 µM in the test on 786-0 renal; 17.3 µM and > 100 µM in the test with K-562 leukemia; more than 41.7 µM in the test with HS 578T breast; 25.9 µM and 12.3 µM in the test with TK-10 renal; > 100 µM and 27.4 µM in the test with A549 NSCLC; 3.14 µM and 11 µM in the test on SNB-19 CNS.
